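Growth conditions: 96-well plates. Treatment: test compound, 48 hours, 5 concentrations. Analysis: linear interpolation between bracketing concentrations; unreached endpoints set to highest concentration. TGI: concentration producing complete growth inhibition.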
Columns and labels:
Test in all cases: inhibition of tumour cell growth, NCI panel, 48 h
HS 578T breast = tested on: HS 578T breast
MDA-N = tested on: MDA-N
UACC-257 melanoma = tested on: UACC-257 melanoma
A549 NSCLC = tested on: A549 NSCLC
OVCAR-5 ovarian = tested on: OVCAR-5 ovarian
BT-549 breast = tested on: BT-549 breast
RPMI-8226 leukemia = tested on: RPMI-8226 leukemia
IGROV1 ovarian = tested on: IGROV1 ovarian
U251 CNS = tested on: U251 CNS
SN12C renal = tested on: SN12C renal
T-47D breast = tested on: T-47D breast
NCI-H23 lung = tested on: NCI-H23 lung
SF-268 CNS = tested on: SF-268 CNS
SK-OV-3 ovarian = tested on: SK-OV-3 ovarian
ACHN renal = tested on: ACHN renal
SK-MEL-2 melanoma = tested on: SK-MEL-2 melanoma
CAKI-1 renal = tested on: CAKI-1 renal
NCI/ADR-RES ovarian = tested on: NCI/ADR-RES ovarian
TK-10 renal = tested on: TK-10 renal
SR leukemia = tested on: SR leukemia
MOLT-4 leukemia = tested on: MOLT-4 leukemia
HCT-15 colon = tested on: HCT-15 colon
HCC-2998 colon = tested on: HCC-2998 colon
EKVX NSCLC = tested on: EKVX NSCLC
LOX IMVI melanoma = tested on: LOX IMVI melanoma
RXF 393 renal = tested on: RXF 393 renal
SNB-75 CNS = tested on: SNB-75 CNS
A498 renal = tested on: A498 renal
786-0 renal = tested on: 786-0 renal
K-562 leukemia = tested on: K-562 leukemia
M14 melanoma = tested on: M14 melanoma
HT29 colon = tested on: HT29 colon
HL-60(TB) leukemia = tested on: HL-60(TB) leukemia
SK-MEL-5 melanoma = tested on: SK-MEL-5 melanoma
CCRF-CEM leukemia = tested on: CCRF-CEM leukemia
PC-3 prostate = tested on: PC-3 prostate
SNB-19 CNS = tested on: SNB-19 CNS
COLO 205 colon = tested on: COLO 205 colon
HCT-116 colon = tested on: HCT-116 colon
MDA-MB-435 = tested on: MDA-MB-435
SF-539 CNS = tested on: SF-539 CNS
SW-620 colon = tested on: SW-620 colon
UO-31 renal = tested on: UO-31 renal
SK-MEL-28 melanoma = tested on: SK-MEL-28 melanoma
OVCAR-8 ovarian = tested on: OVCAR-8 ovarian
KM12 colon = tested on: KM12 colon
NCI-H522 lung = tested on: NCI-H522 lung
NCI-H460 lung = tested on: NCI-H460 lung
SF-295 CNS = tested on: SF-295 CNS
HOP-92 NSCLC = tested on: HOP-92 NSCLC
NCI-H226 lung = tested on: NCI-H226 lung
OVCAR-4 ovarian = tested on: OVCAR-4 ovarian
DU-145 prostate = tested on: DU-145 prostate
MCF7 breast = tested on: MCF7 breast
MDA-MB-231 breast = tested on: MDA-MB-231 breast
UACC-62 melanoma = tested on: UACC-62 melanoma
HOP-62 NSCLC = tested on: HOP-62 NSCLC
OVCAR-3 ovarian = tested on: OVCAR-3 ovarian
MALME-3M melanoma = tested on: MALME-3M melanoma

CCC1(COC(NC(=O)c2ccccc2)(C(F)(F)F)C(F)(F)F)COC1
TGI (HS 578T breast): > 100 µM
TGI (MDA-N): > 100 µM
TGI (UACC-257 melanoma): > 100 µM
TGI (A549 NSCLC): > 100 µM
TGI (OVCAR-5 ovarian): > 100 µM
TGI (BT-549 breast): > 100 µM
TGI (RPMI-8226 leukemia): > 100 µM
TGI (IGROV1 ovarian): > 100 µM
TGI (U251 CNS): > 100 µM
TGI (SN12C renal): > 100 µM
TGI (T-47D breast): > 100 µM
TGI (NCI-H23 lung): > 100 µM
TGI (SF-268 CNS): > 100 µM
TGI (SK-OV-3 ovarian): > 100 µM
TGI (ACHN renal): > 100 µM
TGI (SK-MEL-2 melanoma): > 100 µM
TGI (CAKI-1 renal): > 100 µM
TGI (NCI/ADR-RES ovarian): > 100 µM
TGI (TK-10 renal): > 100 µM
TGI (SR leukemia): > 100 µM
TGI (MOLT-4 leukemia): > 100 µM
TGI (HCT-15 colon): > 100 µM
TGI (HCC-2998 colon): > 100 µM
TGI (EKVX NSCLC): > 100 µM
TGI (LOX IMVI melanoma): > 100 µM
TGI (RXF 393 renal): > 100 µM
TGI (SNB-75 CNS): > 100 µM
TGI (A498 renal): > 100 µM
TGI (786-0 renal): > 100 µM
TGI (K-562 leukemia): > 100 µM
TGI (M14 melanoma): > 100 µM
TGI (HT29 colon): > 100 µM
TGI (HL-60(TB) leukemia): > 100 µM
TGI (SK-MEL-5 melanoma): > 100 µM
TGI (CCRF-CEM leukemia): > 100 µM
TGI (PC-3 prostate): > 100 µM
TGI (SNB-19 CNS): > 100 µM
TGI (COLO 205 colon): > 100 µM
TGI (HCT-116 colon): > 100 µM
TGI (MDA-MB-435): > 100 µM
TGI (SF-539 CNS): > 100 µM
TGI (SW-620 colon): > 100 µM
TGI (UO-31 renal): > 100 µM
TGI (SK-MEL-28 melanoma): > 100 µM
TGI (OVCAR-8 ovarian): > 100 µM

Cc1ccc(S(=O)(=O)NCCSCCSCCNS(=O)(=O)c2ccc(C)cc2)cc1
TGI (HS 578T breast): > 100 µM
TGI (KM12 colon): > 100 µM
TGI (MDA-N): > 100 µM
TGI (UACC-257 melanoma): > 100 µM
TGI (A549 NSCLC): > 100 µM
TGI (NCI-H522 lung): > 100 µM
TGI (NCI-H460 lung): > 100 µM
TGI (SF-295 CNS): > 100 µM
TGI (SN12C renal): > 100 µM
TGI (HOP-92 NSCLC): > 100 µM
TGI (SF-268 CNS): > 100 µM
TGI (SK-OV-3 ovarian): > 100 µM
TGI (ACHN renal): > 100 µM
TGI (NCI/ADR-RES ovarian): > 100 µM
TGI (TK-10 renal): > 100 µM
TGI (SR leukemia): > 100 µM
TGI (MOLT-4 leukemia): > 100 µM
TGI (HCC-2998 colon): > 100 µM
TGI (LOX IMVI melanoma): > 100 µM
TGI (RXF 393 renal): > 100 µM
TGI (SNB-75 CNS): 68.7 µM
TGI (A498 renal): 91.6 µM
TGI (K-562 leukemia): > 100 µM
TGI (HT29 colon): > 100 µM
TGI (SK-MEL-5 melanoma): 18 µM
TGI (NCI-H226 lung): > 100 µM
TGI (CCRF-CEM leukemia): > 100 µM
TGI (PC-3 prostate): > 100 µM
TGI (SNB-19 CNS): > 100 µM
TGI (COLO 205 colon): 41.2 µM
TGI (OVCAR-4 ovarian): > 100 µM
TGI (HCT-116 colon): > 100 µM
TGI (DU-145 prostate): > 100 µM
TGI (SW-620 colon): > 100 µM
TGI (UO-31 renal): > 100 µM
TGI (SK-MEL-28 melanoma): > 100 µM
TGI (MCF7 breast): > 100 µM
TGI (OVCAR-8 ovarian): > 100 µM

CC1=NN(C(=O)CSc2nc3ccc(I)cc3c(=O)n2Cc2ccccc2)C(=O)C1
TGI (HS 578T breast): 35.8 µM
TGI (KM12 colon): > 100 µM
TGI (MDA-N): > 100 µM
TGI (UACC-257 melanoma): 85.4 µM
TGI (A549 NSCLC): > 100 µM
TGI (MDA-MB-231 breast): > 100 µM
TGI (NCI-H522 lung): 21.2 µM
TGI (OVCAR-5 ovarian): > 100 µM
TGI (RPMI-8226 leukemia): > 100 µM
TGI (IGROV1 ovarian): 65.4 µM
TGI (NCI-H460 lung): > 100 µM
TGI (SF-295 CNS): 63.9 µM
TGI (U251 CNS): 67.4 µM
TGI (SN12C renal): > 100 µM
TGI (UACC-62 melanoma): > 100 µM
TGI (HOP-92 NSCLC): 70.7 µM
TGI (T-47D breast): 60.3 µM
TGI (NCI-H23 lung): 43.1 µM
TGI (SF-268 CNS): 69.5 µM
TGI (SK-OV-3 ovarian): 77 µM
TGI (ACHN renal): > 100 µM
TGI (SK-MEL-2 melanoma): 41 µM
TGI (CAKI-1 renal): > 100 µM
TGI (NCI/ADR-RES ovarian): 58.3 µM
TGI (TK-10 renal): > 100 µM
TGI (SR leukemia): 74 µM
TGI (MOLT-4 leukemia): 67.8 µM
TGI (HCT-15 colon): 52.4 µM
TGI (HCC-2998 colon): > 100 µM
TGI (EKVX NSCLC): 79.8 µM
TGI (LOX IMVI melanoma): > 100 µM
TGI (RXF 393 renal): 66.2 µM
TGI (HOP-62 NSCLC): > 100 µM
TGI (SNB-75 CNS): 85.3 µM
TGI (A498 renal): 83.7 µM
TGI (786-0 renal): > 100 µM
TGI (K-562 leukemia): 74.9 µM
TGI (M14 melanoma): > 100 µM
TGI (HT29 colon): > 100 µM
TGI (HL-60(TB) leukemia): > 100 µM
TGI (SK-MEL-5 melanoma): 55.2 µM
TGI (NCI-H226 lung): > 100 µM
TGI (CCRF-CEM leukemia): > 100 µM
TGI (PC-3 prostate): 49.7 µM
TGI (SNB-19 CNS): > 100 µM
TGI (COLO 205 colon): 92.5 µM
TGI (OVCAR-3 ovarian): 54.9 µM
TGI (OVCAR-4 ovarian): 87.8 µM
TGI (HCT-116 colon): > 100 µM
TGI (MDA-MB-435): 75.2 µM
TGI (DU-145 prostate): > 100 µM
TGI (SF-539 CNS): > 100 µM
TGI (SW-620 colon): > 100 µM
TGI (SK-MEL-28 melanoma): > 100 µM
TGI (MCF7 breast): 61.3 µM
TGI (OVCAR-8 ovarian): > 100 µM

COc1ccc(C(=O)c2[nH]c(Nc3ccc(Cl)cc3)c(C(=S)Nc3ccccc3)c2N)cc1
TGI (HS 578T breast): > 100 µM
TGI (KM12 colon): > 100 µM
TGI (MDA-N): > 100 µM
TGI (UACC-257 melanoma): > 100 µM
TGI (A549 NSCLC): > 100 µM
TGI (MDA-MB-231 breast): > 100 µM
TGI (NCI-H522 lung): > 100 µM
TGI (OVCAR-5 ovarian): > 100 µM
TGI (BT-549 breast): > 100 µM
TGI (IGROV1 ovarian): > 100 µM
TGI (NCI-H460 lung): > 100 µM
TGI (SF-295 CNS): > 100 µM
TGI (SN12C renal): > 100 µM
TGI (UACC-62 melanoma): > 100 µM
TGI (HOP-92 NSCLC): > 100 µM
TGI (T-47D breast): > 100 µM
TGI (NCI-H23 lung): > 100 µM
TGI (SF-268 CNS): > 100 µM
TGI (SK-OV-3 ovarian): > 100 µM
TGI (ACHN renal): > 100 µM
TGI (SK-MEL-2 melanoma): > 100 µM
TGI (CAKI-1 renal): > 100 µM
TGI (NCI/ADR-RES ovarian): > 100 µM
TGI (TK-10 renal): > 100 µM
TGI (SR leukemia): > 100 µM
TGI (MALME-3M melanoma): > 100 µM
TGI (MOLT-4 leukemia): > 100 µM
TGI (HCT-15 colon): > 100 µM
TGI (HCC-2998 colon): > 100 µM
TGI (EKVX NSCLC): > 100 µM
TGI (LOX IMVI melanoma): > 100 µM
TGI (RXF 393 renal): > 100 µM
TGI (HOP-62 NSCLC): > 100 µM
TGI (SNB-75 CNS): > 100 µM
TGI (A498 renal): > 100 µM
TGI (786-0 renal): > 100 µM
TGI (K-562 leukemia): > 100 µM
TGI (HT29 colon): > 100 µM
TGI (HL-60(TB) leukemia): > 100 µM
TGI (SK-MEL-5 melanoma): > 100 µM
TGI (NCI-H226 lung): > 100 µM
TGI (CCRF-CEM leukemia): > 100 µM
TGI (SNB-19 CNS): > 100 µM
TGI (COLO 205 colon): > 100 µM
TGI (OVCAR-3 ovarian): > 100 µM
TGI (OVCAR-4 ovarian): 93.6 µM
TGI (HCT-116 colon): > 100 µM
TGI (MDA-MB-435): > 100 µM
TGI (DU-145 prostate): > 100 µM
TGI (SF-539 CNS): > 100 µM
TGI (SW-620 colon): > 100 µM
TGI (UO-31 renal): > 100 µM
TGI (SK-MEL-28 melanoma): 87 µM
TGI (MCF7 breast): > 100 µM
TGI (OVCAR-8 ovarian): > 100 µM

— PubChem BioAssay (NCI)
